{"source": "PubChem BioAssay (NCI)", "test_in_all_cases": "DTP human tumour cell line panel, 48 h", "key": {"MALME-3M melanoma": {"test_system": "MALME-3M melanoma"}, "HOP-92 NSCLC": {"test_system": "HOP-92 NSCLC"}, "EKVX NSCLC": {"test_system": "EKVX NSCLC"}, "CAKI-1 renal": {"test_system": "CAKI-1 renal"}, "UO-31 renal": {"test_system": "UO-31 renal"}, "UACC-257 melanoma": {"test_system": "UACC-257 melanoma"}, "786-0 renal": {"test_system": "786-0 renal"}, "UACC-62 melanoma": {"test_system": "UACC-62 melanoma"}, "TK-10 renal": {"test_system": "TK-10 renal"}, "NCI-H226 lung": {"test_system": "NCI-H226 lung"}, "HS 578T breast": {"test_system": "HS 578T breast"}, "ACHN renal": {"test_system": "ACHN renal"}, "PC-3 prostate": {"test_system": "PC-3 prostate"}, "OVCAR-3 ovarian": {"test_system": "OVCAR-3 ovarian"}, "HCT-15 colon": {"test_system": "HCT-15 colon"}, "K-562 leukemia": {"test_system": "K-562 leukemia"}, "SK-MEL-28 melanoma": {"test_system": "SK-MEL-28 melanoma"}, "OVCAR-4 ovarian": {"test_system": "OVCAR-4 ovarian"}, "T-47D breast": {"test_system": "T-47D breast"}, "HL-60(TB) leukemia": {"test_system": "HL-60(TB) leukemia"}, "SK-OV-3 ovarian": {"test_system": "SK-OV-3 ovarian"}, "MOLT-4 leukemia": {"test_system": "MOLT-4 leukemia"}, "KM12 colon": {"test_system": "KM12 colon"}, "NCI/ADR-RES ovarian": {"test_system": "NCI/ADR-RES ovarian"}, "SF-268 CNS": {"test_system": "SF-268 CNS"}, "OVCAR-8 ovarian": {"test_system": "OVCAR-8 ovarian"}, "SNB-19 CNS": {"test_system": "SNB-19 CNS"}, "IGROV1 ovarian": {"test_system": "IGROV1 ovarian"}}, "note": "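Step 1: Grow cells in 96-well plates. Step 2: Expose to compound for 48 hours at 5 concentrations. Step 3: Interpolate endpoints linearly; if unreached, use highest concentration. GI50 = concentration required for 50% inhibition of growth. Definition used: TGI = concentration required for complete inhibition of growth.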", "data": [{"smiles": "S=C(S)NCCNC(=S)S.[Cu+2]", "values": [{"measurement": "GI50", "setting": "MALME-3M melanoma", "result": "> 100", "unit": "µM"}, {"measurement": "TGI", "setting": "MALME-3M melanoma", "result": "> 100", "unit": "µM"}, {"measurement": "GI50", "setting": "HOP-92 NSCLC", "result": "> 100", "unit": "µM"}, {"measurement": "TGI", "setting": "HOP-92 NSCLC", "result": "> 100", "unit": "µM"}, {"measurement": "GI50", "setting": "EKVX NSCLC", "result": 70.1, "unit": "µM"}, {"measurement": "TGI", "setting": "EKVX NSCLC", "result": "> 100", "unit": "µM"}, {"measurement": "GI50", "setting": "CAKI-1 renal", "result": "> 100", "unit": "µM"}, {"measurement": "TGI", "setting": "CAKI-1 renal", "result": "> 100", "unit": "µM"}, {"measurement": "GI50", "setting": "UO-31 renal", "result": "> 100", "unit": "µM"}, {"measurement": "TGI", "setting": "UO-31 renal", "result": "> 100", "unit": "µM"}, {"measurement": "GI50", "setting": "UACC-257 melanoma", "result": "> 100", "unit": "µM"}, {"measurement": "TGI", "setting": "UACC-257 melanoma", "result": "> 100", "unit": "µM"}, {"measurement": "GI50", "setting": "786-0 renal", "result": 63.2, "unit": "µM"}, {"measurement": "TGI", "setting": "786-0 renal", "result": "> 100", "unit": "µM"}, {"measurement": "GI50", "setting": "UACC-62 melanoma", "result": 33.9, "unit": "µM"}, {"measurement": "TGI", "setting": "UACC-62 melanoma", "result": "> 100", "unit": "µM"}, {"measurement": "GI50", "setting": "TK-10 renal", "result": "> 100", "unit": "µM"}, {"measurement": "TGI", "setting": "TK-10 renal", "result": "> 100", "unit": "µM"}, {"measurement": "GI50", "setting": "NCI-H226 lung", "result": "> 100", "unit": "µM"}, {"measurement": "TGI", "setting": "NCI-H226 lung", "result": "> 100", "unit": "µM"}, {"measurement": "GI50", "setting": "HS 578T breast", "result": "> 100", "unit": "µM"}, {"measurement": "TGI", "setting": "HS 578T breast", "result": "> 100", "unit": "µM"}, {"measurement": "GI50", "setting": "ACHN renal", "result": "> 100", "unit": "µM"}, {"measurement": "TGI", "setting": "ACHN renal", "result": "> 100", "unit": "µM"}, {"measurement": "GI50", "setting": "PC-3 prostate", "result": "> 100", "unit": "µM"}, {"measurement": "TGI", "setting": "PC-3 prostate", "result": "> 100", "unit": "µM"}, {"measurement": "GI50", "setting": "OVCAR-3 ovarian", "result": "> 100", "unit": "µM"}, {"measurement": "TGI", "setting": "OVCAR-3 ovarian", "result": "> 100", "unit": "µM"}, {"measurement": "GI50", "setting": "HCT-15 colon", "result": 51.6, "unit": "µM"}, {"measurement": "TGI", "setting": "HCT-15 colon", "result": "> 100", "unit": "µM"}, {"measurement": "GI50", "setting": "K-562 leukemia", "result": "> 100", "unit": "µM"}, {"measurement": "TGI", "setting": "K-562 leukemia", "result": "> 100", "unit": "µM"}, {"measurement": "GI50", "setting": "SK-MEL-28 melanoma", "result": "> 100", "unit": "µM"}, {"measurement": "TGI", "setting": "SK-MEL-28 melanoma", "result": "> 100", "unit": "µM"}, {"measurement": "GI50", "setting": "OVCAR-4 ovarian", "result": 36.1, "unit": "µM"}, {"measurement": "TGI", "setting": "OVCAR-4 ovarian", "result": "> 100", "unit": "µM"}, {"measurement": "GI50", "setting": "T-47D breast", "result": "> 100", "unit": "µM"}, {"measurement": "TGI", "setting": "T-47D breast", "result": "> 100", "unit": "µM"}, {"measurement": "GI50", "setting": "HL-60(TB) leukemia", "result": "> 100", "unit": "µM"}, {"measurement": "TGI", "setting": "HL-60(TB) leukemia", "result": "> 100", "unit": "µM"}, {"measurement": "GI50", "setting": "SK-OV-3 ovarian", "result": 8.24, "unit": "µM"}, {"measurement": "TGI", "setting": "SK-OV-3 ovarian", "result": 23.1, "unit": "µM"}, {"measurement": "GI50", "setting": "MOLT-4 leukemia", "result": "> 100", "unit": "µM"}, {"measurement": "TGI", "setting": "MOLT-4 leukemia", "result": "> 100", "unit": "µM"}, {"measurement": "GI50", "setting": "KM12 colon", "result": "> 100", "unit": "µM"}, {"measurement": "TGI", "setting": "KM12 colon", "result": "> 100", "unit": "µM"}, {"measurement": "GI50", "setting": "NCI/ADR-RES ovarian", "result": "> 100", "unit": "µM"}, {"measurement": "TGI", "setting": "NCI/ADR-RES ovarian", "result": "> 100", "unit": "µM"}, {"measurement": "GI50", "setting": "SF-268 CNS", "result": "> 100", "unit": "µM"}, {"measurement": "TGI", "setting": "SF-268 CNS", "result": "> 100", "unit": "µM"}, {"measurement": "GI50", "setting": "OVCAR-8 ovarian", "result": "> 100", "unit": "µM"}, {"measurement": "TGI", "setting": "OVCAR-8 ovarian", "result": "> 100", "unit": "µM"}, {"measurement": "GI50", "setting": "SNB-19 CNS", "result": "> 100", "unit": "µM"}, {"measurement": "TGI", "setting": "SNB-19 CNS", "result": "> 100", "unit": "µM"}, {"measurement": "GI50", "setting": "IGROV1 ovarian", "result": 93.2, "unit": "µM"}]}]}
